What was measured:
[1] = compound: CC(C)(C)c1nc(-c2cccc(NS(=O)(=O)c3c(F)cccc3F)c2F)c(-c2ccnc(N)n2)s1 [Dabrafenib] + COc1cc2c(Oc3ccc(NC(=O)C4(C(=O)Nc5ccc(F)cc5)CC4)cc3F)ccnc2cc1OCCCN1CCOCC1 [Foretinib] (partner 0.25 µM); experiment: relative viability (nuclei count vs DMSO), 5 days (fraction); higher = more cells survive
How it was run: (§1)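 A single step with final 0.05% Triton X-100, 1% formaldehyde and 1 ug/ml Hoechst fixed the cells and stained nuclei 5 days after treatment. Lung cancer cell lines in 1536-well plates had been treated by pin tool the day after seeding with one drug alone or a fixed anchor-drug dose plus five library-drug doses (not always all listed) in √10 steps, and nuclei were counted on 4× images. Relative viability is the ratio of nuclei in treated wells to nuclei in vehicle wells, taken as the median of duplicate plates.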

[2] = compound: CC(C)(C)c1nc(-c2cccc(NS(=O)(=O)c3c(F)cccc3F)c2F)c(-c2ccnc(N)n2)s1 [Dabrafenib] + CC(=O)Nc1cccc(-n2c(=O)n(C3CC3)c(=O)c3c(Nc4ccc(I)cc4F)n(C)c(=O)c(C)c32)c1 [Trametinib] (partner 0.02 µM); experiment: as above
How it was run: as §1

SW 900 was tested. Which relative viability ([1]; first compound 0.009487 µM) did it give?
Its relative viability is 0.905.

And the relative viability ([1]; first compound 0.03 µM)?
The relative viability was 0.788.

And the relative viability ([1]; first compound 0.3 µM)?
The relative viability was 0.856.

What about the relative viability ([2]; first compound 0.009487 µM) of the same cell line?
Its relative viability is 0.671.

And the relative viability ([2]; first compound 0.09487 µM)?
The relative viability was 1.04.

And the relative viability ([2]; first compound 0.3 µM)?
Its relative viability is 0.93.

From the supplement of paper PMC10307832
